Measured values: patent US9732119B2, “Immunomodulators” (BRISTOL-MYERS SQUIBB COMPANY, priority 2014, dated 2017)
Positions of bridges follow the written chain, without caps; N, C: chain ends. Non-standard residues stand in square brackets, D forms with d. Residues, ends and D or L forms follow the SMILES beside them. Trp(1-CH2COOH) = N[C@@H](Cc1cn(CC(=O)O)c2ccccc12)C(=O)O; Phe(4-Cl) = N[C@@H](Cc1ccc(Cl)cc1)C(=O)O; Hyp = O=C(O)[C@@H]1C[C@@H](O)CN1; Aad = N[C@@H](CCCC(=O)O)C(=O)O; NMeNle = CCCC[C@H](NC)C(=O)O; Pip = O=C(O)[C@@H]1CCCCN1; NMeA = CN[C@@H](C)C(=O)O; Orn = NCCC[C@H](N)C(=O)O; Dab = NCC[C@H](N)C(=O)O; Dap = NC[C@H](N)C(=O)O; AEA = NCCOCC(=O)O; Ava = NCCCCC(=O)O; βAla = NCCC(=O)O

Target: T1, PD-1-Ig binding to PD-L1-TVMV-His (PD-L1-His) (Homo sapiens, UniProt Q9NZQ7)
T1 construct: hPDL1(19-239)-TVMV-His; made in house; host or cells: HEK293T cells
T1 sequence (Q9NZQ7 with tags, fused parts or gaps): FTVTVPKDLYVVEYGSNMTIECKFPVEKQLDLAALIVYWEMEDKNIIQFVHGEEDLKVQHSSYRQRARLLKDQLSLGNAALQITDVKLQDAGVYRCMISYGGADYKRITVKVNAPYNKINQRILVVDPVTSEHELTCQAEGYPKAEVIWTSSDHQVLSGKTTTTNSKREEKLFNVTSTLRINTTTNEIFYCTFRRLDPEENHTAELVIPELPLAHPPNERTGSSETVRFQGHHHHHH
Experiment: PD-1/PD-L1 Homogenous Time-Resolved Fluorescence (HTRF) binding assay
Conditions: PD-1-Ig (20 nM) / PD-L1-His (10 nM); numeric values
How it was run: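 HTRF competition: compound pre-incubated 15 min with PD-L1-His (10 nM final), then PD-1-Ig (20 nM final) added for 15 min in dPBS, 0.1% BSA, 0.05% Tween-20. Detection with Eu-cryptate anti-Ig (1 nM) and APC anti-His (20 nM) antibodies.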

SMILES | IC50 [nM]
CCCC[C@H]1C(=O)N(C)[C@@H](CCCC)C(=O)N[C@@H](CC(C)C)C(=O)NCCC[C@H](N)C(=O)N[C@@H](Cc2ccc(Cl)cc2)C(=O)N2CCCC[C@H]2C(=O)N[C@@H](CC(N)=O)C(=O)N2CCC[C@H]2C(=O)N[C@@H](CN)C(=O)N[C@@H](CC(C)C)C(=O)N2C[C@H](O)C[C@H]2C(=O)N[C@@H](Cc2c[nH]c3ccccc23)C(=O)N[C@@H](CCN)C(=O)N[C@@H](Cc2cn(CC(=O)O)c3ccccc23)C(=O)N1C [Example 10545] (H-[Orn][Phe(4-Cl)][Pip]NP[Dap]L[Hyp]W[Dab][Trp(1-CH2COOH)][NMeNle][NMeNle]L; lactam 1-C) | 8

Same assay, conditions: PD-1-Ig (20 nM) / PD-L1-His (10 nM); range classes

SMILES | IC50 [nM]
CCCC[C@H]1C(=O)N(C)[C@@H](CCCC)C(=O)N[C@@H](CC(C)C)C(=O)N[C@H](C(N)=O)CNCC(=O)N[C@@H](Cc2ccc(O)cc2)C(=O)N2CCCC[C@H]2C(=O)N[C@@H](CC(N)=O)C(=O)N2CCC[C@H]2C(=O)N[C@@H](CCC(N)=O)C(=O)N[C@@H](CCC(=O)O)C(=O)N2C[C@H](O)C[C@H]2C(=O)N[C@@H](Cc2c[nH]c3ccccc23)C(=O)N[C@@H](CC(N)=O)C(=O)N[C@@H](Cc2cn(CC(=O)O)c3ccccc23)C(=O)N1C [Example 9028] | 1 to 9.9
CCCC[C@H]1C(=O)N(C)[C@@H](CCCC)C(=O)N[C@@H](CC(C)C)C(=O)N[C@H](C(=O)NCC(N)=O)CNCC(=O)N[C@@H](Cc2ccc(O)cc2)C(=O)N2CCCC[C@H]2C(=O)N[C@@H](CC(N)=O)C(=O)N2CCC[C@H]2C(=O)N[C@@H](CN)C(=O)N[C@@H](CC(C)C)C(=O)N2C[C@H](O)C[C@H]2C(=O)N[C@@H](Cc2c[nH]c3ccccc23)C(=O)N[C@@H](CCN)C(=O)N[C@@H](Cc2cn(CC(=O)O)c3ccccc23)C(=O)N1C [Example 1037] | 1 to 9.9
CCCC[C@H]1C(=O)N(C)[C@@H](CCCC)C(=O)N[C@@H](CCC(=O)O)C(=O)N[C@H](C(N)=O)CNCC(=O)N[C@@H](Cc2ccc(F)cc2)C(=O)N2CCCC[C@H]2C(=O)N[C@@H](CC(N)=O)C(=O)N2CCC[C@H]2C(=O)N[C@@H](Cc2c[nH]cn2)C(=O)N[C@@H](CCC(N)=O)C(=O)N2C[C@H](O)C[C@H]2C(=O)N[C@@H](Cc2c[nH]c3ccccc23)C(=O)N[C@@H](C)C(=O)N[C@@H](Cc2cn(CC(=O)O)c3ccccc23)C(=O)N1C [Example 9059] | 1 to 9.9
CCCC[C@H]1C(=O)N(C)[C@@H](CCCC)C(=O)N[C@@H](CCC(=O)O)C(=O)N[C@H](C(N)=O)CNCC(=O)N[C@@H](Cc2ccc(O)cc2)C(=O)N2CCCC[C@H]2C(=O)N[C@@H](CC(N)=O)C(=O)N2CCC[C@H]2C(=O)N[C@@H](CCC(N)=O)C(=O)N[C@@H](CC(=O)O)C(=O)N2C[C@H](O)C[C@H]2C(=O)N[C@@H](Cc2c[nH]c3ccccc23)C(=O)N[C@@H](CC(N)=O)C(=O)N[C@@H](Cc2cn(CC(=O)O)c3ccccc23)C(=O)N1C [Example 9043] | 1 to 9.9
CCCC[C@H]1C(=O)N(C)[C@@H](CCCC)C(=O)N[C@@H](CC(C)C)C(=O)N[C@H](C(N)=O)CNCC(=O)N[C@@H](Cc2ccc(F)cc2)C(=O)N2CCCC[C@H]2C(=O)N[C@@H](CC(N)=O)C(=O)N2CCC[C@H]2C(=O)N[C@@H](CCC(N)=O)C(=O)N[C@@H](CC(C)C)C(=O)N2C[C@H](O)C[C@H]2C(=O)N[C@@H](Cc2c[nH]c3ccccc23)C(=O)N[C@@H](CC(N)=O)C(=O)N[C@@H](Cc2cn(CC(=O)O)c3ccccc23)C(=O)N1C [Example 9030] | 10 to 99
CCCC[C@H]1C(=O)N(C)[C@@H](CCCC)C(=O)N[C@@H](CC(C)C)C(=O)NCCOCC(=O)N[C@@H](Cc2ccc(O)cc2)C(=O)N(C)[C@@H](C)C(=O)N[C@@H](CC(N)=O)C(=O)N2CCC[C@H]2C(=O)N[C@@H](CN)C(=O)N[C@@H](CC(C)C)C(=O)N2C[C@H](O)C[C@H]2C(=O)N[C@@H](Cc2c[nH]c3ccccc23)C(=O)N[C@@H](CCN)C(=O)N[C@@H](Cc2cn(CC(=O)O)c3ccccc23)C(=O)N1C [Example 10502] (cyclo([AEA]Y[NMeA]NP[Dap]L[Hyp]W[Dab][Trp(1-CH2COOH)][NMeNle][NMeNle]L)) | 1 to 9.9
CCCC[C@H]1C(=O)N(C)[C@@H](CCCC)C(=O)N[C@@H](CCC(=O)O)C(=O)N[C@H](C(N)=O)CNCC(=O)N[C@@H](Cc2ccc(O)cc2)C(=O)N2CCCC[C@H]2C(=O)N[C@@H](CC(N)=O)C(=O)N2CCC[C@H]2C(=O)N[C@@H](CCC(N)=O)C(=O)N[C@@H](CCC(=O)O)C(=O)N2C[C@H](O)C[C@H]2C(=O)N[C@@H](Cc2c[nH]c3ccccc23)C(=O)N[C@@H](CC(N)=O)C(=O)N[C@@H](Cc2cn(CC(=O)O)c3ccccc23)C(=O)N1C [Example 9044] | 1 to 9.9
CCCC[C@H]1C(=O)N(C)[C@@H](CCCC)C(=O)N[C@@H](CC(C)C)C(=O)N[C@H](C(=O)NCC(N)=O)CNCC(=O)N[C@@H](Cc2ccc(OC)cc2)C(=O)N2CCCC[C@H]2C(=O)N[C@@H](CC(N)=O)C(=O)N2CCC[C@H]2C(=O)N[C@@H](CN)C(=O)N[C@@H](CC(C)C)C(=O)N2C[C@H](O)C[C@H]2C(=O)N[C@@H](Cc2c[nH]c3ccccc23)C(=O)N[C@@H](CCN)C(=O)N[C@@H](Cc2cn(CC(=O)O)c3ccccc23)C(=O)N1C [Example 1040] | 1 to 9.9
CCCC[C@H]1C(=O)N(C)[C@@H](CCCC)C(=O)N[C@@H](CC(C)C)C(=O)NCC(=O)NCCC(=O)N[C@@H](Cc2ccc(O)cc2)C(=O)N(C)[C@@H](C)C(=O)N[C@@H](CC(N)=O)C(=O)N2CCC[C@H]2C(=O)N[C@@H](Cc2c[nH]cn2)C(=O)N[C@@H](CC(C)C)C(=O)N2C[C@H](O)C[C@H]2C(=O)N[C@@H](Cc2c[nH]c3ccccc23)C(=O)NCC(=O)N[C@@H](Cc2c[nH]c3ccccc23)C(=O)N1C [Example 5004] (cyclo(GW[NMeNle][NMeNle]LG[βAla]Y[NMeA]NPHL[Hyp]W)) | 100 to 10000
CCCC[C@H]1C(=O)N(C)[C@@H](CCCC)C(=O)N[C@@H](CC(C)C)C(=O)N[C@H](C(N)=O)CNCC(=O)N[C@@H](Cc2ccc(F)cc2)C(=O)N2CCCC[C@H]2C(=O)N[C@@H](CC(N)=O)C(=O)N2CCC[C@H]2C(=O)N[C@@H](CCC(N)=O)C(=O)N[C@@H](CC(=O)O)C(=O)N2C[C@H](O)C[C@H]2C(=O)N[C@@H](Cc2c[nH]c3ccccc23)C(=O)N[C@@H](CC(N)=O)C(=O)N[C@@H](Cc2cn(CC(=O)O)c3ccccc23)C(=O)N1C [Example 9031] | 1 to 9.9
CCCC[C@H]1C(=O)N(C)[C@@H](CCCC)C(=O)N[C@@H](CCC(=O)O)C(=O)N[C@H](C(=O)NCC(N)=O)CNCC(=O)N[C@@H](Cc2ccc(F)cc2)C(=O)N(C)[C@@H](C)C(=O)N[C@@H](CC(N)=O)C(=O)N2CCC[C@H]2C(=O)N[C@@H](CCC(N)=O)C(=O)N[C@@H](CCC(=O)O)C(=O)N2C[C@H](O)C[C@H]2C(=O)N[C@@H](Cc2c[nH]c3ccccc23)C(=O)N[C@@H](CC(N)=O)C(=O)N[C@@H](Cc2cn(CC(=O)O)c3ccccc23)C(=O)N1C [Example 9024] | 10 to 99
CCCC[C@H]1C(=O)N(C)[C@@H](CCCC)C(=O)NC(CC(C)C)C(=O)N[C@H](C(N)=O)CNCC(=O)N[C@@H](Cc2ccc(O)cc2)C(=O)N(C)[C@@H](C)C(=O)N[C@@H](CC(N)=O)C(=O)N2CCC[C@H]2C(=O)N[C@@H](CN)C(=O)N[C@@H](CC(C)C)C(=O)N2C[C@H](O)C[C@H]2C(=O)N[C@@H](Cc2c[nH]c3ccccc23)C(=O)N[C@@H](CCCCN)C(=O)N[C@@H](Cc2cn(CC(=O)O)c3ccccc23)C(=O)N1C (some centres unmarked) [Example 1033] | 10 to 99
CCCC[C@H]1C(=O)N(C)[C@@H](CCCC)C(=O)N[C@@H](CC(C)C)C(=O)N[C@H](C(=O)NCC(N)=O)CCNCC(=O)N[C@@H](Cc2ccc(O)cc2)C(=O)N(C)[C@@H](C)C(=O)N[C@@H](CC(N)=O)C(=O)N2CCC[C@H]2C(=O)N[C@@H](Cc2cnc[nH]2)C(=O)N[C@@H](CCC(N)=O)C(=O)N2C[C@H](O)C[C@H]2C(=O)N[C@@H](Cc2c[nH]c3ccccc23)C(=O)NCC(=O)N[C@@H](Cc2c[nH]c3ccccc23)C(=O)N1C [Example 10018] | 10 to 99
CCCC[C@H]1C(=O)N(C)[C@@H](CCCC)C(=O)N[C@@H](CCC(=O)O)C(=O)N[C@H](C(N)=O)CNCC(=O)N[C@@H](Cc2ccc(F)cc2)C(=O)N2CCCC[C@H]2C(=O)N[C@@H](CC(N)=O)C(=O)N2CCC[C@H]2C(=O)N[C@@H](CCC(N)=O)C(=O)N[C@@H](CC(C)C)C(=O)N2C[C@H](O)C[C@H]2C(=O)N[C@@H](Cc2c[nH]c3ccccc23)C(=O)N[C@@H](CC(N)=O)C(=O)N[C@@H](Cc2cn(CC(=O)O)c3ccccc23)C(=O)N1C [Example 9046] | 1 to 9.9
CCCC[C@H]1C(=O)N(C)[C@@H](CCCC)C(=O)N[C@@H](CC(C)C)C(=O)NCCCCC(=O)N[C@@H](Cc2ccc(OC)cc2)C(=O)N2CCCC[C@H]2C(=O)N[C@@H](CC(N)=O)C(=O)N2CCC[C@H]2C(=O)N[C@@H](CN)C(=O)N[C@@H](CCC(=O)O)C(=O)N2C[C@H](O)C[C@H]2C(=O)N[C@@H](Cc2c[nH]c3ccccc23)C(=O)N[C@@H](CCN)C(=O)N[C@@H](Cc2cn(CC(=O)O)c3ccccc23)C(=O)N1C [Example 10542] (cyclo([Ava]Y(Me)[Pip]NP[Dap]E[Hyp]W[Dab][Trp(1-CH2COOH)][NMeNle][NMeNle]L)) | 1 to 9.9
CCCC[C@H]1C(=O)N(C)[C@@H](CCCC)C(=O)N[C@@H](CC(C)C)C(=O)N[C@H](C(N)=O)CCCC(=O)N[C@@H](Cc2ccc(O)cc2)C(=O)N2CCCC[C@H]2C(=O)N[C@@H](CC(N)=O)C(=O)N2CCC[C@H]2C(=O)N[C@@H](CN)C(=O)N[C@@H](CCC(=O)O)C(=O)N2C[C@H](O)C[C@H]2C(=O)N[C@@H](Cc2c[nH]c3ccccc23)C(=O)N[C@@H](CCN)C(=O)N[C@@H](Cc2cn(CC(=O)O)c3ccccc23)C(=O)N1C [Example 10520] (Y[Pip]NP[Dap]E[Hyp]W[Dab][Trp(1-CH2COOH)][NMeNle][NMeNle]L[Aad]-NH2; lactam N-14) | 10 to 99
